Experimental findings from US20260116921A1, “PEPTIDE INHIBITORS OF INTERLEUKIN-23 RECEPTOR AND THEIR USE TO TREAT INFLAMMATORY DISEASES” (priority 2018, published 2026) are described below.

SMILES strings stand for the structures. Like-named read-outs stand apart in the source and are kept apart here. Numbered stars: 1 amine (or outer) side, 2 acyl side, 3 side chain; on linkers, the order of the positions; unused ones are H or OH. Bridge positions count the residues as written; N and C are the ends. Square brackets hold non-standard residues; d marks the D form. Peptide text beside a SMILES is read from it. X3 = CCc1ccc2c(C[C@H](N[*:1])C(=O)[*:2])c[nH]c2c1; Trp(7-Me) = Cc1cccc2c(C[C@H](N)C(=O)O)c[nH]c12; Trp(2-Me) = Cc1[nH]c2ccccc2c1C[C@H](N)C(=O)O; 2Nal = N[C@@H](Cc1ccc2ccccc2c1)C(=O)O; d2Nal = N[C@H](Cc1ccc2ccccc2c1)C(=O)O; AEF = NCCOc1ccc(C[C@H](N)C(=O)O)cc1; Cit = NC(=O)NCCC[C@H](N)C(=O)O; Pen = CC(C)(S)[C@H](N)C(=O)O; αMeK = C[C@](N)(CCCCN)C(=O)O; Aib = CC(C)(N)C(=O)O Bounds are passed on as bounds.

Data set [1] in a line: in vitro. Particulars: cynomolgus monkey, 20% fecal homogenate (supernatant), anaerobic, pH 6.8.
The next data set deals with T1, IL-23R (Homo sapiens, UniProt Q5VWK5).
T1 sequence (Q5VWK5 24-629): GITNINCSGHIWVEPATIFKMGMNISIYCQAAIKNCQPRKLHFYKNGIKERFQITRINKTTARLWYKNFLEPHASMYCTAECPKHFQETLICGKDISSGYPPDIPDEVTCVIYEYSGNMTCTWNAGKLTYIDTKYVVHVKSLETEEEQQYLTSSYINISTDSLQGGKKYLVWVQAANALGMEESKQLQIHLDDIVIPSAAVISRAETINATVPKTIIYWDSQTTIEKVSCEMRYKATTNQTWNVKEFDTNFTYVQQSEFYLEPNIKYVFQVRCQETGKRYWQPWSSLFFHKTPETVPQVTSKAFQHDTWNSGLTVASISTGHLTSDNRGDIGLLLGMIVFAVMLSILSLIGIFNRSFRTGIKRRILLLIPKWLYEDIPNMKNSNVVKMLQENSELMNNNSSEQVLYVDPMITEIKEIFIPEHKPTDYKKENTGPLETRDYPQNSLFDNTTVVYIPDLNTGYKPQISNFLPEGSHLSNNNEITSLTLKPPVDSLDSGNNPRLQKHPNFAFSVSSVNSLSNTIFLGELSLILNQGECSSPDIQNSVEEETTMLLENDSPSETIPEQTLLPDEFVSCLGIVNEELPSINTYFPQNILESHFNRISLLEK
Description: DB cells IL23R pSTAT3 cell assay (pStat3 HTRF). It counts as cell-based. From the text:
Human ELISA indicates the IL23-IL23R competitive binding assay described below, Rat ELISA indicates the rat IL-23R competitive binding ELISA assay described below, and pStat3HTRF indicates the DB cells IL-23R pSTAT3 cell assay described below. The peptides depicted in Table E1 are cyclized via a disulfide bridge formed between two Pen residues in these peptides. The peptides depicted in Table E2 are cyclized via a thioether bond between the indicated amino acid residues. Table E2 provides an illustrative structure depicting thioether cyclization, which is indicated in the table by the term “cyclo,” with the cyclic region bracketed immediately following the term “cyclo.” For certain peptides, the residue Abu is present where indicated, whereas in other embodiments, e.g., those related to the non-cyclized form, the Abu may be referred to as a hSer(Cl) or homoSer residue.
DB Cells IL23R pSTAT3 Cell Assay
IL-23 plays a central role in supporting and maintaining Th17 differentiation in vivo. This process is thought to be mediated primarily through the Signal Transducer and Activator of Transcription 3 (STAT3), with phosphorylation of STAT3 (to yield pSTAT3) leading to upregulation of RORC and pro-inflammatory IL-17. This cell assay examines the levels of pSTAT3 in IL-23R-expressing DB cells when stimulated with IL-23 in the presence of test compounds. Serial dilutions of test peptides and IL-23 (Humanzyme #HZ-1261) at a final concentration of 0.5 nM, were added to each well in a 96 well tissue culture plate (Corning #CLS3894). DB cells (ATCC #CRL-2289), cultured in RPMI-1640 medium (Thermo Scientific #11875093) supplemented with 10% FBS, were added at 5×10E5 cells/well and incubated for 30 minutes at 37° C. in a 5% CO2 humidified incubator. Changes in phospho-STAT3 levels in the cell lysates were detected using the Cisbio HTRF pSTAT3 (Tyr705) Cellular Assay Kit (Cisbio #62AT3PEH), according to manufacturer's Two Plate Assay protocol.

The nature of data set [2]: in vitro. Particulars: human, 20% fecal homogenate (supernatant), anaerobic, pH 6.8.
Description: Fecal homogenate (20%) was prepared by adding 4 mL of growth medium (1 liter contains 2 g peptone water powder, 2 g yeast extract, 0.1 g NaCl, 0.04 g KH2PO4, 0.01 g CaCl2·6H2O, 0.01 g MgSO4·7H2O, 2 mL Tween 80, 0.5 g bile salts, 0.5 g L-cysteine HCl, 2 g NaHCO3, and 10 μL Vitamin K, pH adjusted to 6.8, and sterilized by filtration through a 0.22 μm filter) to every gram of feces (pooled freshly collected human or cynomolgus monkey feces). The suspension was vortexed to break up large clumps, and homogenized using a bead mill homogenizer. Centrifuged the homogenate at 2800×g for 15 min. The supernatant is taken out and used for incubations. DMSO stocks (10 mM) were first prepared for the test compounds. Incubations were performed in an anaerobic chamber conditioned at 37° C. Aliquots of the DMSO solutions were dosed into 1.0 mL aliquots of 20% fecal homogenate, which are pre-warmed to 37° C. The final test compound concentration was 20 μM. At each timepoint (0, 20 min, 1, 3, 6, or 24 hours), 100 μL aliquot of each incubation mixture is taken out and added to separate tubes containing 300 μL of 50% acetonitrile/50% methanol and an internal standard to terminate the reaction. Samples were taken out of the anaerobic chamber and stored at 4° C. until the end of the experiment. After the final timepoint is sampled, the tubes were mixed and then centrifuged at 3,000 rpm for 10 minutes. Aliquots of the supernatant were removed, diluted 1:1 into distilled water containing 0.1% formic acid, and analyzed by LC/MS/MS. Percent remaining at each timepoint was calculated based on the peak area response ratio of test to compound to internal standard. Time 0 was set to 100%, and all later timepoints were calculated relative to time 0. Half-lives were calculated by fitting to a first-order exponential decay equation using Graphpad or Excel.
The mark [3] stands for this setting: Table E3, DB cells, IL-23 0.5 nM, 30 minutes at 37° C., read-out: pStat3 HTRF (IC50).

As for `CC(=O)N[C@H](CCCNC(=N)N)C(=O)N[C@H]1CCSC[C@@H](C(=O)N[C@@H](Cc2ccc(OCCN)cc2)C(=O)N[C@@H](Cc2ccc3ccccc3c2)C(=O)NC2(C(=O)N[C@@H](CCC(=O)O)C(=O)N[C@@H](CC(N)=O)C(=O)N[C@@H](CC(N)=O)C(N)=O)CCOCC2)NC(=O)[C@H](CCC(N)=O)NC(=O)[C@H](Cc2c[nH]c3c(C)cccc23)NC(=O)[C@H]([C@@H](C)O)NC(=O)[C@H](CCC(N)=O)NC1=O` [compound 27], in “in vitro [1]”, the half-life at 20 μM was 3 h. In addition, the IC50 against IL-23R is less than 1 nM.
Regarding `CC(=O)NCCCC[C@H](NC(=O)[C@](C)(CC(C)C)NC(=O)[C@H](Cc1ccc2ccccc2c1)NC(=O)[C@H](Cc1ccc(OCCN)cc1)NC(=O)[C@H]1NC(=O)[C@H](CCC(N)=O)NC(=O)[C@H](Cc2c[nH]c3c(C)cccc23)NC(=O)[C@H]([C@@H](C)O)NC(=O)[C@H](CC(N)=O)NC(=O)[C@@H](NC(C)=O)C(C)(C)SSC1(C)C)C(=O)N1CCC[C@@H]1C(=O)NCCC(N)=O` [compound 212], the half-life at 20 μM in the data set “in vitro [1]” and in the data set “in vitro [2]” was greater than 24 h in each case. Also, the IC50 at IL-23R (setting [3]) was 10 to 100 nM.
In the case of `CC(=O)NCCCC[C@H](NC(=O)[C@](C)(CC(C)C)NC(=O)[C@H](Cc1ccc2ccccc2c1)NC(=O)[C@H](Cc1ccc(OCCN)cc1)NC(=O)[C@H]1NC(=O)[C@H](CCC(N)=O)NC(=O)[C@H](Cc2c[nH]c3c(C)cccc23)NC(=O)[C@H]([C@@H](C)O)NC(=O)[C@H](CC(N)=O)NC(=O)[C@@H](NC(C)=O)C(C)(C)SSC1(C)C)C(=O)N[C@H](CO)C(=O)NCCC(N)=O` [compound 222], the half-life at 20 μM in “in vitro [1]” and in “in vitro [2]” was greater than 24 h throughout. Further, the IC50 on IL-23R (setting [3]) fell in the range of 1 to 10 nM.
With `COc1cccc2[nH]cc(C[C@@H]3NC(=O)[C@H]([C@@H](C)O)NC(=O)[C@H](CC(N)=O)NC(=O)[C@@H](NC(C)=O)C(C)(C)SSC(C)(C)[C@@H](C(=O)N[C@@H](Cc4ccc(OCCN)cc4)C(=O)N[C@@H](Cc4ccc5ccccc5c4)C(=O)N[C@@](C)(CCCCN)C(=O)N[C@@H](CCCCNC(C)=O)C(=O)N[C@@H](CC(N)=O)C(=O)NCCC(N)=O)NC(=O)[C@H](CCC(N)=O)NC3=O)c12` [compound 229], the half-life at 20 μM in the data set “in vitro [1]” was 7 h; in “in vitro [2]” it was greater than 24 h. Moreover, at IL-23R (setting [3]), the IC50 was 10 to 100 nM.
Turning to `CC(=O)NCCCC[C@H](NC(=O)[C@](C)(CCCCN)NC(=O)[C@H](Cc1ccc2ccccc2c1)NC(=O)[C@H](Cc1ccc(OCCN)cc1)NC(=O)[C@H]1NC(=O)[C@H](CCC(N)=O)NC(=O)[C@H](Cc2c[nH]c3cc(C)ccc23)NC(=O)[C@H]([C@@H](C)O)NC(=O)[C@H](CC(N)=O)NC(=O)[C@@H](NC(C)=O)C(C)(C)SSC1(C)C)C(=O)N[C@@H](CC(N)=O)C(=O)NCCC(N)=O` [compound 230], the half-life at 20 μM in the data set “in vitro [1]” is 10 h; in the data set “in vitro [2]”, greater than 24 h. Besides, the half-inhibitory concentration (IC50) on IL-23R (setting [3]) lay in the range of 10 to 100 nM.
As to `CC(=O)NCCCC[C@H](NC(=O)[C@](C)(CCCCN)NC(=O)[C@H](Cc1ccc2ccccc2c1)NC(=O)[C@H](Cc1ccc(OCCN)cc1)NC(=O)[C@H]1NC(=O)[C@H](CCC(N)=O)NC(=O)[C@H](Cc2c[nH]c3cccc(C)c23)NC(=O)[C@H]([C@@H](C)O)NC(=O)[C@H](CC(N)=O)NC(=O)[C@@H](NC(C)=O)C(C)(C)SSC1(C)C)C(=O)N[C@@H](CC(N)=O)C(=O)NCCC(N)=O` [compound 231], the half-life at 20 μM was 15 h in “in vitro [1]” and greater than 24 h in the data set “in vitro [2]”. In addition, at IL-23R (setting [3]), the IC50 fell in the range of 1 to 10 nM.
Turning to `CC(=O)NCCCC[C@H](NC(=O)[C@](C)(CCCCN)NC(=O)[C@H](Cc1ccc2ccccc2c1)NC(=O)[C@H](Cc1ccc(OCCN)cc1)NC(=O)[C@H]1NC(=O)[C@H](CCCNC(N)=O)NC(=O)[C@H](Cc2c[nH]c3c(C)cccc23)NC(=O)[C@H]([C@@H](C)O)NC(=O)[C@H](CC(N)=O)NC(=O)[C@@H](NC(C)=O)C(C)(C)SSC1(C)C)C(=O)N[C@@H](CC(N)=O)C(=O)NC(C)(C)C(=O)N[C@H](CCCCN)C(N)=O` [compound 344] (Ac-[Pen]NT[Trp(7-Me)][Cit][Pen][AEF][2Nal][αMeK]K(Ac)N[Aib][dK]-NH2; disulfide 1-6), the IC50 on IL-23R (setting [3]) is less than 1 nM.
The same measure, in the same setting: the value for `CC(=O)NCCCC[C@H](NC(=O)[C@](C)(CCCCN)NC(=O)[C@H](Cc1ccc2ccccc2c1)NC(=O)[C@H](Cc1ccc(OCCN)cc1)NC(=O)[C@H]1NC(=O)[C@H](CCCNC(N)=O)NC(=O)[C@H](Cc2c[nH]c3c(C)cccc23)NC(=O)[C@H]([C@@H](C)O)NC(=O)[C@H](CC(N)=O)NC(=O)[C@@H](NC(C)=O)C(C)(C)SSC1(C)C)C(=O)N[C@@H](CC(N)=O)C(=O)NC(C)(C)C(=O)N[C@H](Cc1ccccc1)C(N)=O` [compound 346] (Ac-[Pen]NT[Trp(7-Me)][Cit][Pen][AEF][2Nal][αMeK]K(Ac)N[Aib][dF]-NH2; disulfide 1-6) was less than 1 nM; that for `CC(=O)NCCCC[C@H](NC(=O)[C@](C)(CCCCN)NC(=O)[C@H](Cc1ccc2ccccc2c1)NC(=O)[C@H](Cc1ccc(OCCN)cc1)NC(=O)[C@H]1NC(=O)[C@H](CCCNC(N)=O)NC(=O)[C@H](Cc2c[nH]c3c(C)cccc23)NC(=O)[C@H]([C@@H](C)O)NC(=O)[C@H](CC(N)=O)NC(=O)[C@@H](NC(C)=O)C(C)(C)SSC1(C)C)C(=O)N[C@@H](CC(N)=O)C(=O)NC(C)(C)C(=O)N[C@H](Cc1ccc(O)cc1)C(N)=O` [compound 347] (Ac-[Pen]NT[Trp(7-Me)][Cit][Pen][AEF][2Nal][αMeK]K(Ac)N[Aib][dY]-NH2; disulfide 1-6) was less than 1 nM.
The same measure, in the same setting: the result for `CC(=O)NCCCC[C@H](NC(=O)[C@](C)(CCCCN)NC(=O)[C@H](Cc1ccc2ccccc2c1)NC(=O)[C@H](Cc1ccc(OCCN)cc1)NC(=O)[C@H]1NC(=O)[C@H](CCCNC(N)=O)NC(=O)[C@H](Cc2c[nH]c3c(C)cccc23)NC(=O)[C@H]([C@@H](C)O)NC(=O)[C@H](CC(N)=O)NC(=O)[C@@H](NC(C)=O)C(C)(C)SSC1(C)C)C(=O)N[C@@H](CC(N)=O)C(=O)NC(C)(C)C(=O)N[C@H](Cc1ccc2ccccc2c1)C(N)=O` [compound 348] (Ac-[Pen]NT[Trp(7-Me)][Cit][Pen][AEF][2Nal][αMeK]K(Ac)N[Aib][d2Nal]-NH2; disulfide 1-6) reads 1 to 10 nM.
Turning to `CCc1ccc2c(C[C@@H]3NC(=O)[C@H]([C@@H](C)O)NC(=O)[C@H](CC(N)=O)NC(=O)[C@@H](NC(C)=O)C(C)(C)SSC(C)(C)[C@@H](C(=O)N[C@@H](Cc4ccc(OCCN)cc4)C(=O)N[C@@H](Cc4ccc5ccccc5c4)C(=O)N[C@@](C)(CCCCN)C(=O)N[C@@H](CCCCNC(C)=O)C(=O)N[C@@H](CC(N)=O)C(=O)N[C@H](CCCCN)C(N)=O)NC(=O)[C@H](CCCCNC(C)=O)NC3=O)c[nH]c2c1` [compound 349] (Ac-[Pen]NT[X3]K(Ac)[Pen][AEF][2Nal][αMeK]K(Ac)N[dK]-NH2; disulfide 1-6), the concentration for half-maximal inhibition (IC50) on IL-23R lay within 1 to 10 nM.
On the same count and under the same terms, the result for `CC(=O)NCCCC[C@@H]1NC(=O)[C@H](Cc2c[nH]c3c(C)cccc23)NC(=O)[C@H]([C@@H](C)O)NC(=O)[C@H](CC(N)=O)NC(=O)[C@@H](NC(C)=O)C(C)(C)SSC(C)(C)[C@@H](C(=O)N[C@@H](Cc2ccc(OCCN)cc2)C(=O)N[C@@H](Cc2ccc3ccccc3c2)C(=O)N[C@@](C)(CCCCN)C(=O)N[C@@H](CCCCNC(C)=O)C(=O)N[C@@H](CO)C(=O)N[C@H](CCCCN)C(N)=O)NC1=O` [compound 352] reads 1 to 10 nM.
As to `CC(=O)NCCCC[C@@H]1NC(=O)[C@H](Cc2c[nH]c3c(C)cccc23)NC(=O)[C@H]([C@@H](C)O)NC(=O)[C@H](CC(N)=O)NC(=O)[C@@H](NC(C)=O)C(C)(C)SSC(C)(C)[C@@H](C(=O)N[C@@H](Cc2ccc(OCCN)cc2)C(=O)N[C@@H](Cc2c(C)[nH]c3ccccc23)C(=O)N[C@@](C)(CCCCN)C(=O)N[C@@H](CCCCNC(C)=O)C(=O)N[C@@H](CC(N)=O)C(=O)N[C@H](CCCCN)C(N)=O)NC1=O` [compound 353] (Ac-[Pen]NT[Trp(7-Me)]K(Ac)[Pen][AEF][Trp(2-Me)][αMeK]K(Ac)N[dK]-NH2; disulfide 1-6), at IL-23R (setting [3]), the IC50 was less than 1 nM.
